Experiments:
CXCR1 = assay: Western blot verification of CXCR1 protein in PBMC of LAQ-treated RRMS patients; assay type: in vivo, human; conditions: six months of LAQ treatment vs baseline, n=5
Description: FIG. 10: Expression of TGFb, ITGB1 and CXCR1 in RRMS patients treated with LAQ. Protein extracts were prepared from PBMCs samples derived from RRMS patients before treatment (black bars) and compared to PBMCs samples of the same patients after six months of LAQ treatment (white bars). The signal intensity of a protein bands were quantified by Quantity One 4.6.9 software. The resultant background-subtracted values of protein expression were normalized to those of Tubulin and then calculated as the relative protein levels for each patient before or after LAQ treatment. The blot images in A, B and C are representative of two out of five analyzed patients showing down regulation of TGFb, ITGB1 and CXCR1, respectively as also quantified by densitometry of bands analyzed from five patients. Data are presented as mean±SEM. Statistically significant differences are marked in graphs (n=5, paired one-tailed t-test). Protein fractions were purified from PBMC of 5 patients at baseline and after six months of LAQ treatment. Proteins were extracted from TRIZOL fractions and solubilized following the method reported by Hummon et al., 2007 (Hummon et al., 2007). […] Blots were analyzed by standard chemi-luminescence (Supersignal Kit, Pierce, Rockford, Ill., USA) and visualization was done by ChemiDoc™ XRS System (Bio-Rad).

PAI-1 (Serpine 1) = assay: Western blot verification of PAI-1 (Serpine 1) protein in PBMC of LAQ-treated patients; assay type: in vivo, human; conditions: four out of five patients, after 6 months of LAQ treatment
Description: FIG. 6: Expression of PAI-1 (Serpine 1) in PBMCs of patients following treatment with LAQ. Protein samples were prepared from phenol/ethanol fractions of PBMCs derived from patients after 6 month of LAQ treatment (+) and compare to PBMCs samples of the same patients before treatment (−) (A). From each sample […] was separated on 10% SDS-PAGE. Blots were incubated with Rabbit a-PAI-1 (1:500) and mouse Tubulin (1:500). The signal intensities of a protein band and its surrounding background were scanned for each protein and quantified by using Quantity One 4.6.9 software. The resultant background-subtracted values of protein expression were normalized to those of Tubulin and then plotted as the relative protein levels for each patient with or without LAQ treatment (B).
For verification of key genes on protein level Western blot analysis was performed. Supernatant was collected and protein concentration was determined using a Bradford assay (Pierce, Rockford, Ill., USA) according the manufacturer's guidelines. Equal amounts of protein were suspended in sample buffer and boiled for 5 min. Cell lysates were resolved on 10% SDS-polyacrylamide gel electrophoresis (PAGE). […] The blots were then washed three times with TBST buffer and analyzed by standard chemiluminescence (Supersignal Kit, Pierce, Rockford, Ill., USA) according to the company's protocol.

TGFB1 = assay: Western blot verification of TGFB1 (TGFb) protein in PBMC of LAQ-treated RRMS patients; assay type: in vivo, human
Description: FIG. 5: Expression of TGFB1 in PBMCs of RRMS patients following treatment with LAQ. Protein samples ([…]) were prepared from phenol/ethanol fractions of PBMCs derived from patients after 6 month of LAQ treatment (+) and compared to PBMCs samples of the same patients before treatment (−) (FIGS. 5A and 5C). From each sample 30 ug was separated on 10% SDS-PAGE. Blots were incubated with Rabbit a-TGFb1 (1:250) and mouse Tubulin (1:500). The signal intensities of a protein band and its surrounding background were scanned for each protein and quantified by using Quantity One 4.6.9 software (Bio-Rad Laboratories, Hercules, Calif.). […] The signal intensity of a protein bands were quantified by Quantity One 4.6.9 software. The resultant background-subtracted values of protein expression were normalized to those of Tubulin and then calculated as the relative protein levels for each patient before or after LAQ treatment. The blot images in A, B and C are representative of two out of five analyzed patients showing down regulation of TGFb, ITGB1 and CXCR1, respectively as also quantified by densitometry of bands analyzed from five patients. […] Supernatant was collected and protein concentration was determined using a Bradford assay (Pierce, Rockford, Ill., USA) according the manufacturer's guidelines. […]

RRMS patients [1] = conditions: 106 RRMS patients vs 102 placebo treated RRMS patients; cited from earlier work
RRMS patients [2] = conditions: cited from earlier work

CCN(C(=O)c1c(O)c2c(Cl)cccc2n(C)c1=O)c1ccccc1 [LAQ, 5-chloro-N-ethyl-4-hydroxy-1-methyl-2-oxo-N-phenyl-1,2-dihydroquinoline-3-carboxamide]
down regulation of CXCR1 protein (CXCR1): 24.7%
reduced expression of PAI-1 protein (band intensities normalized against tubulin) (PAI-1 (Serpine 1)): 30-50%
down-regulation of TGFB1 protein level (band intensities normalized against Tubulin) (TGFB1; four out of five patients, 6 months of LAQ treatment vs before treatment): 20-50%
TGFb protein suppressed by (quantification of bands intensities) (TGFB1; six months of LAQ treatment vs baseline, n=5): 69.0%
reduction in the cumulative number of gadolinium enhanced lesions in brain MRI (RRMS patients [1]): about 40%
annualized relapse rate (RRMS patients [2]; RRMS patients treated for 24 months): modestly decreased
safety and tolerability profile (RRMS patients [2]; two phase III trials (BRAVO, ALLEGRO)): favorable

From patent US20160201132A1, “GENE EXPRESSION BIOMARKERS OF LAQUINIMOD RESPONSIVENESS” (Teva Pharmaceutical Industries Ltd., priority 2013, published 2016)
